Test results: patent US20170000129A1, “METHOD FOR TREATING MINERAL SLURRIES WITH A BIOCIDE” (priority 2015, published 2017)

Key:
[1] = system: bacterial growth in kaolin slurry; test: Kaolin slurry preservation test: biocide-dosed 65% solids slurry plated on standard method agar, samples as treated; type: cell-based, bacteria
Description: (§1) In the comparative testing, dry kaolin was mixed with water to achieve a 65% solid slurry material. This material contained no biocide. The slurry was then split into 200 gram aliquots and dosed with different biocides at different concentration as shown in Tables 1-3. All samples were kept at 50° C. until the end of the testing, which was up to 28 days.
A number of different and known biocides were used in the study and they include glutaraldehyde (glute), 1,2 benzithiazolin-3-one (BIT), tetrahydro-3-5-methyl-2H-1,3,5-thiadizine-2-thione (thione), isothiazoline (ISO), bronopol (BNPD) or orthophenyl phenate (OPP). For shorthand purposes, the study refers to the tradename of the biocide, which is found in the above listing of the biocides. Metam sodium is designated as SMDC and MDTCMA is used without change
(§2) The protocol for the testing of each sample is as follows: • 1) dosed with a recorded level of biocide; • 2) mixed for 24 hours contact time and plated using standard method agar for bacterial growth; • 3) remixed daily for 1 hour and retested for bacterial growth at Day 3; • 4) remixed daily for 1 hour and retested for bacterial growth at Day 7; • 5) remixed daily for 1 hour and retested for bacterial growth at Day 14; • 6) on day 20, samples were split into two containers: one container was inoculated (or challenged) with ˜10^5 cfu/ml bacteria, the other was left “as treated”, the challenge material was obtained from a contaminated kaolin product and is assumed to be representative of the types of bacteria that are seen in the kaolin industry, and the two sets of samples were prepared for Day 21 testing; • 7) both sets were remixed daily for 1 hour and retested for bacterial growth at Day 21; and • 8) both sets remixed daily for 1 hour and retested for bacterial growth at Day 28.
Different contact times were used to see how quickly the bacterial population was effected by the biocide.

[2] = system: bacteria from a contaminated kaolin product; test: Kaolin slurry preservation test, challenge: on day 20 samples inoculated with ~10^5 cfu/ml bacteria from a contaminated kaolin product; type: cell-based
Description: as §1, §2

## CN1CSC(=S)N(C)C1 [24% Thione, tetrahydro-3,5-dimethyl-2H-1,3,5-thiadiazine-2-thione, reference compound]
[1]; 500 ppm, Table 2
  Log Red, contact time 1 day: 0
  Log Red, contact time 3 day: 3
  Log Red, contact time 7 day: 4
  Log Red, contact time 14 day: 4
  Log Red, contact time 21 day: 5
  Log Red, contact time 28 day: 5
  cfu/mL, contact time 1 day: 13,340,000 cfu/mL
  cfu/mL, contact time 3 day: 11,000 cfu/mL
  cfu/mL, contact time 7 day: 5,600 cfu/mL
  cfu/mL, contact time 14 day: 2,100 cfu/mL
  cfu/mL, contact time 21 day: 1,100 cfu/mL
  cfu/mL, contact time 28 day: 800 cfu/mL
[1]; 500 ppm, Table 3
  Log Red, contact time 1 day: 2
  Log Red, contact time 3 day: 2
  Log Red, contact time 7 day: 2
  Log Red, contact time 14 day: 3
  Log Red, contact time 21 day: 2
  Log Red, contact time 28 day: 2
  cfu/mL, contact time 1 day: 3,300 cfu/mL
  cfu/mL, contact time 3 day: 100 cfu/mL
  cfu/mL, contact time 7 day: 100 cfu/mL
  cfu/mL, contact time 14 day: 100 cfu/mL
  cfu/mL, contact time 21 day: 100 cfu/mL
  cfu/mL, contact time 28 day: 100 cfu/mL
[1]; 1000 ppm, Table 2
  Log Red, contact time 1 day: 1
  Log Red, contact time 3 day: 4
  Log Red, contact time 7 day: 4
  Log Red, contact time 14 day: 5
  Log Red, contact time 21 day: 5
  Log Red, contact time 28 day: 5
  cfu/mL, contact time 1 day: 6,670,000 cfu/mL
  cfu/mL, contact time 3 day: 6,800 cfu/mL
  cfu/mL, contact time 7 day: 2,600 cfu/mL
  cfu/mL, contact time 14 day: 1,200 cfu/mL
  cfu/mL, contact time 21 day: 300 cfu/mL
  cfu/mL, contact time 28 day: 200 cfu/mL
[1]; 1000 ppm, Table 3
  Log Red, contact time 1 day: 3
  Log Red, contact time 3 day: 2
  Log Red, contact time 7 day: 2
  Log Red, contact time 14 day: 3
  Log Red, contact time 21 day: 2
  Log Red, contact time 28 day: 2
  cfu/mL, contact time 1 day: 100 cfu/mL
  cfu/mL, contact time 3 day: 100 cfu/mL
  cfu/mL, contact time 7 day: 100 cfu/mL
  cfu/mL, contact time 14 day: 100 cfu/mL
  cfu/mL, contact time 21 day: 100 cfu/mL
  cfu/mL, contact time 28 day: 100 cfu/mL
[2]; 500 ppm, Table 2
  Log Red, 21 day Challenge: 3
  Log Red, 28 day Challenge: 4
  cfu/mL, 21 day Challenge: 39,000 cfu/mL
  cfu/mL, 28 day Challenge: 3,400 cfu/mL
[2]; 500 ppm, Table 3
  Log Red, 21 day Challenge: 5
  Log Red, 28 day Challenge: 5
  cfu/mL, 21 day Challenge: 100 cfu/mL
  cfu/mL, 28 day Challenge: 100 cfu/mL
[2]; 1000 ppm, Table 2
  Log Red, 21 day Challenge: 5
  Log Red, 28 day Challenge: 4
  cfu/mL, 21 day Challenge: 900 cfu/mL
  cfu/mL, 28 day Challenge: 1,500 cfu/mL
[2]; 1000 ppm, Table 3
  Log Red, 21 day Challenge: 5
  Log Red, 28 day Challenge: 5
  cfu/mL, 21 day Challenge: 100 cfu/mL
  cfu/mL, 28 day Challenge: 100 cfu/mL
[2]; after inoculation
  biocide effectiveness after inoculation, overall result of the studies: most effective biocides

## O=CCCCC=O [50% Glute, glutaraldehyde, reference compound]
[1]; 400 ppm, Table 2
  Log Red, contact time 1 day: 5
  Log Red, contact time 3 day: 5
  Log Red, contact time 7 day: 6
  Log Red, contact time 14 day: 6
  Log Red, contact time 21 day: 6
  Log Red, contact time 28 day: 5
  cfu/mL, contact time 1 day: 100 cfu/mL
  cfu/mL, contact time 3 day: 100 cfu/mL
  cfu/mL, contact time 7 day: 100 cfu/mL
  cfu/mL, contact time 14 day: 100 cfu/mL
  cfu/mL, contact time 21 day: 100 cfu/mL
  cfu/mL, contact time 28 day: 100 cfu/mL
[1]; Table 2, up to 28 days
  biocide efficacy compared with known biocides: best performer
[2]; 400 ppm, Table 2
  Log Red, 21 day Challenge: 6
  Log Red, 28 day Challenge: 5
  cfu/mL, 21 day Challenge: 100 cfu/mL
  cfu/mL, 28 day Challenge: 100 cfu/mL
